# Results published in US9458113B2 (Boehringer Ingelheim International GmbH, priority 2014, dated 2016).
# Molecular target: Human neutrophil elastase (Homo sapiens (Human), UniProt P08246)
# Assay: Human Neutrophil Elastase Assay
# Format: biochemical
# Conditions: substrate MeOSuc-Ala-Ala-Pro-Val-AMC 250 μM, pH 7.5
# Human neutrophil elastase, sequence (P08246 30-247): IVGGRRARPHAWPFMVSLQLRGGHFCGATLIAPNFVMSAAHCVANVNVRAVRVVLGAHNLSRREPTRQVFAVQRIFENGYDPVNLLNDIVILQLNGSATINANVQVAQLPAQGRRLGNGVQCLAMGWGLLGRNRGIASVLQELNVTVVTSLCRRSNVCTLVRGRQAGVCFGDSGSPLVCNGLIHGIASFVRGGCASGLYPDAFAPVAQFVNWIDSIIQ
row,IC50 [nM],Structure (SMILES)
1,2.9,CN(CCO)C(=O)c1cc(C#N)ccc1C1C2=C(CCC2=O)N(c2cccc(C(F)(F)F)c2)C(=O)N1C (centres unmarked) [Example 1.13]
2,3.1,CN1CCN(C(=O)c2cc(C#N)ccc2[C@@H]2C3=C(CCC3=O)N(c3cccc(C(F)(F)F)c3)C(=O)N2C)CC1 [Example 2.4]
3,1.7,"CN1C(=O)N(c2ccnc(C(F)(F)F)c2)C2=C(C(=O)CC2)C1c1ccc(C#N)cc1C1=CCNCC1 (centres unmarked) [Example 18, 4-[3-Methyl-2,5-dioxo-1-(2-trifluoromethyl-pyridin-4-yl)-2,3,4,5,6,7-hexahydro-1H-cyclopentapyrimidin-4-yl]-3-(1,2,3,6-tetrahydro-pyridin-4-yl)-benzonitrile]"
4,3.3,CN1C(=O)N(c2cccc(C(F)(F)F)c2)C2=C(C(=O)CC2)C1c1ccc(C#N)cc1CNC(C)(C)C (centres unmarked) [Example 9.2]
5,2.6,CC(=O)N(C)[C@@H]1CCN(C(=O)c2cc(C#N)ccc2C2C3=C(CCC3=O)N(c3cccc(C(F)(F)F)c3)C(=O)N2C)C1 (some centres unmarked) [Example 1.78]
6,5.1,CN1CCN(C(=O)c2cc(C#N)ccc2C2C3=C(CCCC3=O)N(c3cccc(C(F)(F)F)c3)C(=O)N2C)CC1 (centres unmarked) [Example 6.2]
7,6,CN1C(=O)N(c2cccc(C(F)(F)F)c2)C2=C(C(=O)CC2)C1c1ccc(C#N)cc1C(=O)NCC(F)F (centres unmarked) [Example 1.16]
8,3.4,CN1C(=O)N(c2cccc(C(F)(F)F)c2)C2=C(C(=O)CC2)C1c1ccc(C#N)cc1C(=O)NCc1cocn1 (centres unmarked) [Example 1.44]
9,2.2,CN1C(=O)N(c2cccc(C(F)(F)F)c2)C2=C(C(=O)CC2)C1c1ccc(C#N)cc1C(=O)N1CCC1 (centres unmarked) [Example 1.7]
10,5,CN1C(=O)N(c2cccc(C(F)(F)F)c2)C2=C(C(=O)CC2)C1c1ccc(C#N)cc1C(=O)NCCCO (centres unmarked) [Example 1.15]
11,1.1,CN(C)C(=O)c1cc(C#N)ccc1[C@@H]1C2=C(CCC2=O)N(c2cccc(C(F)(F)F)c2)C(=O)N1C [Example 2.2]
12,16,CN1C(=O)N(c2cccc(C(F)(F)F)c2)C2=C(C(=O)CC2)C1c1ccc(C#N)cc1-c1ccc2occc2c1 (centres unmarked) [Example 11.15]
13,3.3,"CN1C(=O)N(c2cccc(C(F)(F)F)c2)C2=C(C(=O)CC2)C1c1ccc(C#N)cc1-c1ccoc1 (centres unmarked) [Example 11, 3-Furan-3-yl-4-[3-methyl-2,5-dioxo-1-(3-trifluoromethyl-phenyl)-2,3,4,5,6,7-hexahydro-1H-cyclopentapyrimidin-4-yl]-benzonitrile]"
14,< 1,CN1C(=O)N(c2cccc(C(F)(F)F)c2)C2=C(C(=O)CC2)C1c1ccc(C#N)cc1C(=O)N1CCn2ccnc2C1 (centres unmarked) [Example 1.68]
15,2.8,"Cc1noc(-c2cc(C#N)ccc2C2C3=C(CCC3=O)N(c3cccc(C(F)(F)F)c3)C(=O)N2C)n1 (centres unmarked) [Example 13.2, 4-[3-Methyl-2,5-dioxo-1-(3-trifluoromethyl-phenyl)-2,3,4,5,6,7-hexahydro-1H-cyclopentapyrimidin-4-yl]-3-(3-methyl-[1,2,4]oxadiazol-5-yl)-benzonitrile]"
16,3.9,CN1C(=O)N(c2cccc(C(F)(F)F)c2)C2=C(C(=O)CC2)C1c1ccc(C#N)cc1C(=O)NCc1cccnc1 (centres unmarked) [Example 1.46]
17,4.9,CN1C(=O)N(c2cccc(C(F)(F)F)c2)C2=C(C(=O)CC2)C1c1ccc(C#N)cc1C(=O)N[C@H]1C[C@H]1N (some centres unmarked) [Example 4.14]
18,< 1,"CN1C(=O)N(c2cccc(C(F)(F)F)c2)C2=C(C(=O)CCC2)C1c1ccc(C#N)cc1C(N)=O (single isomer, unassigned) [Example 7a, 5-Cyano-2-[3-methyl-2,5-dioxo-1-(3-trifluoromethyl-phenyl)-1,2,3,4,5,6,7,8-octahydro-quinazolin-4-yl]-benzamide]"
19,3.4,CN1C(=O)N(c2cccc(C(F)(F)F)c2)C2=C(C(=O)CC2)C1c1ccc(C#N)cc1C(=O)NCc1ccoc1 (centres unmarked) [Example 1.37]
20,181,CN1C(=O)N(c2ccnc(C(F)(F)F)c2)C2=C(C(=O)CC2)C1c1ccc(C#N)cc1C(=O)N1CCCCC1 (centres unmarked) [Example 8.4]
21,1.5,CN1C(=O)N(c2cccc(C(F)(F)F)c2)C2=C(C(=O)CCC2)C1c1ccc(C#N)cc1C1=COCC1 (centres unmarked) [Example 15.10]
22,8.7,CN1C(=O)N(c2cccc(C(F)(F)F)c2)C2=C(C(=O)CC2)C1c1ccc(C#N)cc1-c1ccn(C)n1 (centres unmarked) [Example 11.1]
23,5.6,CN1C(=O)N(c2cccc(C(F)(F)F)c2)C2=C(C(=O)CC2)C1c1ccc(C#N)cc1C(=O)N[C@H]1C[C@@H]1N (some centres unmarked) [Example 4.13]
24,5.7,CN1C(=O)N(c2cccc(C(F)(F)F)c2)C2=C(C(=O)CCC2)C1c1ccc(C#N)cc1-c1ccco1 (centres unmarked) [Example 15.5]
25,2,CN1C(=O)N(c2cccc(C(F)(F)F)c2)C2=C(C(=O)CC2)C1c1ccc(C#N)cc1C(=O)NCc1ccon1 (centres unmarked) [Example 1.43]

row,IC50 [nM],Structure (SMILES)
1,7.6,"CN1C(=O)N(c2cccc(C(F)(F)F)c2)C2=C(C(=O)CC2)C1c1ccc(C#N)cc1C(=O)NC1CCC(O)C1 (centres unmarked) [Example 3, 5-Cyano-N-(3-hydroxy-cyclopentyl)-2-[3-methyl-2,5-dioxo-1-(3-trifluoromethyl-phenyl)-2,3,4,5,6,7-hexahydro-1H-cyclopentapyrimidin-4-yl]-benzamide]"
2,5.7,COCCCNC(=O)c1cc(C#N)ccc1C1C2=C(CCC2=O)N(c2cccc(C(F)(F)F)c2)C(=O)N1C (centres unmarked) [Example 1.20]
3,6,CN1C(=O)N(c2cccc(C(F)(F)F)c2)C2=C(C(=O)CC2)C1c1ccc(C#N)cc1C(=O)NCC(=O)N1CCOCC1 (centres unmarked) [Example 1.80]
4,1,CN1C(=O)N(c2cccc(C(F)(F)F)c2)C2=C(C(=O)CC2)C1c1ccc(C#N)cc1-c1ccncc1 (centres unmarked) [Example 11.9]
5,3.3,COCCCN(C)C(=O)c1cc(C#N)ccc1C1C2=C(CCC2=O)N(c2cccc(C(F)(F)F)c2)C(=O)N1C (centres unmarked) [Example 1.24]
6,< 1,CN1C(=O)N(c2cccc(C(F)(F)F)c2)C2=C(C(=O)CC2)C1c1ccc(C#N)cc1C1=CCOCC1 (centres unmarked) [Example 11.11]
7,1.3,CN(C)CCN(C)C(=O)c1cc(C#N)ccc1C1C2=C(CCC2=O)N(c2cccc(C(F)(F)F)c2)C(=O)N1C (centres unmarked) [Example 3.1]
8,1.9,CN1C(=O)N(c2cccc(C(F)(F)F)c2)C2=C(C(=O)CCC2)C1c1ccc(C#N)cc1-c1cncs1 (centres unmarked) [Example 15.3]
9,8.4,CN1C(=O)N(c2cccc(C(F)(F)F)c2)C2=C(C(=O)CC2)C1c1ccc(C#N)cc1C(=O)NC1CCOCC1 (centres unmarked) [Example 1.23]
10,7.9,CN1C(=O)N(c2cccc(C(F)(F)F)c2)C2=C(C(=O)CC2)C1c1ccc(C#N)cc1-c1ccc2c(cnn2C)c1 (centres unmarked) [Example 11.12]
11,4.8,CN1C(=O)N(c2cccc(C(F)(F)F)c2)C2=C(C(=O)CC2)C1c1ccc(C#N)cc1C(=O)NCc1cnn(C)c1 (centres unmarked) [Example 1.55]
12,3.9,COc1ccc(-c2cc(C#N)ccc2C2C3=C(CCC3=O)N(c3cccc(C(F)(F)F)c3)C(=O)N2C)cn1 (centres unmarked) [Example 11.13]
13,7.5,CN1C(=O)N(c2cccc(C(F)(F)F)c2)C2=C(C(=O)CC2)C1c1ccc(C#N)cc1C(=O)N1CCNCC1 (centres unmarked) [Example 4]
14,5,CN1C(=O)N(c2cccc(C(F)(F)F)c2)C2=C(C(=O)CC2)C1c1ccc(C#N)cc1C(=O)NCc1ccnnc1 (centres unmarked) [Example 1.49]
15,50.2,CN1C(=O)N(c2ccnc(C(F)(F)F)c2)C2=C(C(=O)CC2)C1c1ccc(C#N)cc1-c1ccn(C)n1 (centres unmarked) [Example 17.1]
16,3.1,CN1C(=O)N(c2cccc(C(F)(F)F)c2)C2=C(C(=O)CC2)C1c1ccc(C#N)cc1-c1cccnc1 (centres unmarked) [Example 11.10]
17,71.6,CN1C(=O)N(c2ccnc(C(F)(F)F)c2)C2=C(C(=O)CC2)C1c1ccc(C#N)cc1C(=O)N1CCOCC1 (centres unmarked) [Example 8.5]
18,1.9,CN1C(=O)N(c2cccc(C(F)(F)F)c2)C2=C(C(=O)CC2)C1c1ccc(C#N)cc1-c1cncs1 (centres unmarked) [Example 11.3]
19,4.2,CN1C(=O)N(c2cccc(C(F)(F)F)c2)C2=C(C(=O)CC2)C1c1ccc(C#N)cc1C(=O)NCc1cncn1C (centres unmarked) [Example 1.52]
20,4.2,CN1C(=O)N(c2cccc(C(F)(F)F)c2)C2=C(C(=O)CC2)C1c1ccc(C#N)cc1C(=O)NCc1ccccn1 (centres unmarked) [Example 1.47]
21,2.2,CNCc1cc(C#N)ccc1C1C2=C(CCC2=O)N(c2cccc(C(F)(F)F)c2)C(=O)N1C (centres unmarked) [Example 9.4]
22,6.9,CN1C(=O)N(c2cccc(C(F)(F)F)c2)C2=C(C(=O)CC2)C1c1ccc(C#N)cc1C(=O)NCc1ccc(C#N)o1 (centres unmarked) [Example 1.64]
23,2.9,CN1C(=O)N(c2cccc(C(F)(F)F)c2)C2=C(C(=O)CC2)C1c1ccc(C#N)cc1CNC1CCOCC1 (centres unmarked) [Example 9.3]
24,4.6,CC(=O)N1CCN(C(=O)c2cc(C#N)ccc2C2C3=C(CCC3=O)N(c3cccc(C(F)(F)F)c3)C(=O)N2C)CC1 (centres unmarked) [Example 1.85]

row,Structure (SMILES),IC50 [nM]
1,"CN1C(=O)N(c2cccc(C(F)(F)F)c2)C2=C(C(=O)CC2)C1c1ccc(C#N)cc1C1=CCN(C(=O)OC(C)(C)C)C1 (centres unmarked) [Example 11.4, 3-{5-Cyano-2-[3-methyl-2,5-dioxo-1-(3-trifluoromethyl-phenyl)-2,3,4,5,6,7-hexahydro-1H-cyclopentapyrimidin-4-yl]-phenyl}-2,5-dihydro-pyrrole-1-carboxylic acid tert-butyl ester]",2.5
